The source of these data is PubChem BioAssay (NCI).

The test system of this assay is MDA-MB-468 breast. The assay is described as follows: NCI anticancer screen, dose series, 48 h.

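Exposure lasted 48 hours, with cells grown in 96-well plates and compounds tested at five concentrations. Here, GI50 denotes the concentration required for 50% inhibition of growth. The concentration for full growth arrest is given as TGI.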 A value given as a limit tells only on which side of the number the result lay.

For `C=CCNC1=C2C[C@@H](C)C[C@H](OC)[C@H](O)[C@@H](C)/C=C(\C)[C@H](OC(N)=O)[C@@H](OC)/C=C\C=C(/C)C(=O)NC(=CC1=O)C2=O`, the GI50 was 209 nM and the TGI stood at 1830 nM.

Turning to `CCOc1ccc(C(C[N+](=O)[O-])Sc2ccccc2N)cc1` (stereo not drawn), the GI50 was 2110 nM and the TGI turned out to be 4790 nM.

Take `COc1ccccc1[As]=[As]c1ccccc1OC` (stereo not drawn): the GI50 was 19.9 nM and the TGI was determined as 47.4 nM.

Consider `COc1ccc(S(=O)(=O)Nc2c(/C=C\c3cc(OC)c(OC)c(OC)c3)ccc(OC)c2O)cc1`, for which the GI50 was 43.9 nM and the TGI worked out at 17600 nM.

For `Clc1ccc2c(c1)N(C1CCCN(Cc3ccccc3)C1)c1ccccc1S2` (stereo not drawn), the GI50 is 2690 nM and the TGI was 9510 nM.

In the case of `C=C1C(=O)O[C@H]2[C@H]1CC/C(COC(=O)/C=C\C(=O)NCc1ccc(Cn3c(=O)sn(CCI)c3=O)cc1)=C\CC[C@@]1(C)O[C@@H]21`, the GI50 was 2390 nM and the TGI stood at 5850 nM.

Regarding `Cc1nc2sc3c(N)ncnc3c2c(C)c1C`, the GI50 is over 25000 nM and the TGI was over 25000 nM.

Turning to `CCN(CC)c1ccc(-c2cc(-c3cc(OC)c(OC)c(OC)c3)nc(N3CCC(O)CC3)c2C#N)cc1`, the GI50 is 987 nM and the TGI worked out at 3210 nM.

Turning to `Oc1[nH]c2ccccc2c1/C=c1/ccc2c(c1)N=C(c1ccc(C(F)(F)F)cc1)N=2`, the GI50 is 2390 nM and the TGI is 14700 nM.

Consider `COc1ccc(-c2cc(-c3ccc(Cl)cc3)nc(NCCCCNc3ccnc4cc(Cl)ccc34)n2)cc1`, for which the GI50 was 1720 nM and the TGI came out at 4300 nM.

Regarding `COc1ccc(C(=O)c2cc3c(N)c(C(=O)Nc4cccc(Br)c4C)sc3nc2C)cc1`, the GI50 is 40.4 nM.

For the molecule `Cc1ccc(Cl)c(NS(=O)(=O)c2ccc(-c3cnc(C4CC4)o3)cc2)c1`, the GI50 is 45.2 nM and the TGI was 7110 nM.

As for `CCCCOc1ccc(/C=N/Nc2cc(C)nc3ccc(Br)cc23)cc1`, the GI50 is 1670 nM and the TGI worked out at 3220 nM.

For `CN(C)Cc1ccc(NC(=O)c2cncc(C#Cc3cnc(N)c4ncccc34)c2)cc1F`, the GI50 was 7720 nM and the TGI is 25700 nM.

In the case of `C#C[C@@]1(O)[C@@H](CO)O[C@@H](n2cc(C(F)(F)F)c3c(N)ncnc32)[C@@H]1O`, the GI50 is 280 nM and the TGI turned out to be 1900 nM.

In the case of `COc1cc(-c2nc3ccccc3o2)cc(CN2CCCCC2)c1O`, the GI50 is 3240 nM and the TGI amounted to 22800 nM.

Regarding `CCN(CC)CCN1c2nc3ccccc3cc2Sc2cc3ccccc3nc21`, the GI50 was 1790 nM and the TGI came out at 5330 nM.

For `Cn1cc(C2=C(c3cn(CCCN)c4ccccc34)C(=O)NC2=O)c2ccccc21`, the GI50 was 3700 nM and the TGI is 7940 nM.

With `Cn1c(=O)c(Oc2ccc(F)cc2F)cc2cnc(N[C@@H]3CCOC3)nc21`, the GI50 was over 25000 nM and the TGI is over 25000 nM.

As to `c1ccc(-c2n(Cc3ccc4ccccc4c3)c3ccccc3[n+]2Cc2ccc3ccccc3c2)cc1`, the GI50 was 134 nM and the TGI was found to be 703 nM.

For the molecule `Clc1cccc(CNc2c3ccccc3nc3ccccc23)c1`, the GI50 was 1280 nM and the TGI amounted to 3130 nM.

`CCCCCCCCCCNCCSS(=O)(=O)O`: the GI50 is 2450 nM and the TGI amounted to 6280 nM.

As for `Nc1ncc(-c2ccc3ncnc(N4CCc5ccc(Cl)cc54)c3c2)cc1C(F)(F)F`, the GI50 is 299 nM and the TGI is 2680 nM.

As to `CCC(=O)N1C/C(=C/c2ccc(Br)cc2)C(=O)/C(=C/c2ccc(Br)cc2)C1`, the GI50 is 371 nM and the TGI worked out at 1230 nM.

As for `O=C1Cc2cc(CCn3cncn3)c(Cl)cc2N1`, the GI50 is 2180 nM and the TGI came out at 9540 nM.

On to `Fc1ccc(-c2nn3ccccc3c2-c2ccncc2)cc1`, for which the GI50 is 11000 nM and the TGI was over 25000 nM.

With `CCN1C(=O)N(CC)C2C1NN=c1s/c(=C3\C(=O)N(C4CCCC4)c4ccccc43)c(=O)n12` (stereo not drawn), the GI50 is 325 nM and the TGI was found to be 2450 nM.
